The nature of assay [1]: Inhibition of pepsin from porcine gastric mucosa using Arg-Glu-(EDANS)- Ser-Gln-Asn-Tyr-Pro-Ile-Val-Gln-Lys-(DALBCYL)-Arg fluorogenic substrate preincubated for 1 hr measured after 1 hr at 1 min interval by fluorescence assay. Further details: species or system Sus scrofa.
Assay [2] concerns the target T1, Proprotein convertase subtilisin/kexin type 7 (Homo sapiens) (UniProt Q16549).
T1 sequence (whole entry): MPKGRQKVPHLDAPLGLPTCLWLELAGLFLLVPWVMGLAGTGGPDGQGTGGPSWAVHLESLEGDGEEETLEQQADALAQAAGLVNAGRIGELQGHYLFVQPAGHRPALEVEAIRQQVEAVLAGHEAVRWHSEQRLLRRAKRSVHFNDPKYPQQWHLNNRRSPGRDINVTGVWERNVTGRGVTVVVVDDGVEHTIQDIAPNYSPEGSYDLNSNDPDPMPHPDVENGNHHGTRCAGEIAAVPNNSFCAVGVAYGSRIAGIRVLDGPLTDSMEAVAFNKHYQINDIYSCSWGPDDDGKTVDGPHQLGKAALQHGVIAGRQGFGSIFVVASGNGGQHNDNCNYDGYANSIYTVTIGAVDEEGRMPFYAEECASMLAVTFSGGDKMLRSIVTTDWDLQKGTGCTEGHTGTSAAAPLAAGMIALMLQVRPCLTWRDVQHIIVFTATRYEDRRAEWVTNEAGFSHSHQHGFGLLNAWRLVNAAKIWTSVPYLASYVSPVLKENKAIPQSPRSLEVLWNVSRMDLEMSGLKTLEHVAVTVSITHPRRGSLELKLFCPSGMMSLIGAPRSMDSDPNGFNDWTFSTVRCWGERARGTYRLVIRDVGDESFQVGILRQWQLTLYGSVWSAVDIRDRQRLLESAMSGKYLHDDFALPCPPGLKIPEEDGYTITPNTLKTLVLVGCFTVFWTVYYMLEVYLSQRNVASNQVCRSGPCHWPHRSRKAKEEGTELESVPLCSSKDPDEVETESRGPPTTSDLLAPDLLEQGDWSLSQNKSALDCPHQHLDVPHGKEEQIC
The assay is described as follows: Inhibition of recombinant type 8 subtilisin using Arg-Glu-(EDANS)- Ser-Gln-Asn-Tyr-Pro-Ile-Val-Gln-Lys-(DALBCYL)-Arg fluorogenic substrate at 0.01 ug/ml preincubated for 1 hr measured after 1 hr at 1 min interval by fluorescence assay.

Assay [3] addresses T1, Proprotein convertase subtilisin/kexin type 7 (Homo sapiens). The assay is described as follows: Inhibition of recombinant type 8 subtilisin using Arg-Glu-(EDANS)- Ser-Gln-Asn-Tyr-Pro-Ile-Val-Gln-Lys-(DALBCYL)-Arg fluorogenic substrate at 1 ug/ml preincubated for 1 hr measured after 1 hr at 1 min interval by fluorescence assay.
Assay [4] shares this target. The assay is described as follows: Inhibition of recombinant type 8 subtilisin using Arg-Glu-(EDANS)- Ser-Gln-Asn-Tyr-Pro-Ile-Val-Gln-Lys-(DALBCYL)-Arg fluorogenic substrate at 0.001 ug/ml preincubated for 1 hr measured after 1 hr at 1 min interval by fluorescence assay.
For assay [5] the target is unchanged. The assay is described as follows: Inhibition of recombinant type 8 subtilisin using Arg-Glu-(EDANS)- Ser-Gln-Asn-Tyr-Pro-Ile-Val-Gln-Lys-(DALBCYL)-Arg fluorogenic substrate at 0.1 ug/ml preincubated for 1 hr measured after 1 hr at 1 min interval by fluorescence assay.

Structures are written as SMILES.

For `O=c1oc2ccccc2c(O)c1Cc1c(O)c2ccccc2oc1=O` [DICUMAROL], in assay [1], half-maximal inhibition (IC50) was put at 4.57 µM.
Still for that read-out and setting: under `CC(=O)CC(c1ccccc1)c1c(O)c2ccccc2oc1=O` (stereo not drawn) [WARFARIN] stands 0.00832 µM.
For `C=C(CO)[C@@]12O[C@@H]1[C@@]1(C)C(=CC2=O)[C@H](O)CC[C@@H]1C` [XYLARENONE A], the inhibition in assay [2], in assay [3], in assay [4] and in assay [5] was less than 10% in each case. In assay [1], this compound yielded an IC50 of 2.43 µM.
Take `C=C(CO)[C@@]12O[C@@H]1[C@@]1(C)C(=CC2=O)[C@H](OC(=O)C(C)CC(C)CC(C)CC)CC[C@@H]1C` (stereo partly drawn) [XYLARENONE C]: the IC50 in assay [1] was 0.288 µM.
`C=C(CO)[C@@]12O[C@@H]1[C@@]1(C)C(=CC2=O)[C@H](OC(=O)C(O)(CO)CC(C)CC(C)CC)CC[C@@H]1C` (stereo partly drawn) [XYLARENONE D]: the inhibition in assay [2], in assay [3], in assay [4] and in assay [5] was less than 10% in each case. This compound showed a 50% inhibitory concentration (IC50) in assay [1] of 115 µM.
For `C=C(CO)[C@@]12O[C@@H]1[C@@]1(C)C(=CC2=O)[C@H](OC(=O)C(O)(CO)CC(C)CC(C)C(C)O)CC[C@@H]1C` (stereo partly drawn) [XYLARENONE E], the inhibition in assay [2], in assay [3], in assay [4] and in assay [5] was less than 10% throughout. The same compound gave an IC50 in assay [1] of 127 µM.

As a reminder, the IC50 is the concentration that inhibits the measured activity by half. A high value points to weaker potency. One may read the inhibition as the share of the control response that was lost under treatment.

The values are drawn from ChEMBL document CHEMBL1811855, “Xylarenones C-E from an endophytic fungus isolated from Alibertia macrophylla” (J Nat Prod, 2011).
